Results: ChEMBL document CHEMBL5360540, “Antitumor effect of 3-(quinolin-2-ylmethylene)-4,6-dimethyl-5-hydroxy-7-azaoxindole down-regulating the Gas6-Axl axis” (Eur J Med Chem, 2023)
Calls of active or inactive are those of the source. The calls are words filed in the database; no cut-off is given here.

How the values were obtained:
[1] = system: MCF7; assay: Cytotoxicity against human MCF7 cells assessed as inhibition of cell growth at 30 uM incubated for 48 hrs by MTT assay relative to control; type: functional
[2] = system: PANC-1; assay: Cytotoxicity against human PANC-1 cells assessed as inhibition of cell growth at 30 uM incubated for 48 hrs by MTT assay relative to control; type: functional
[3] = system: MCF7; assay: Cytotoxicity against human MCF7 cells assessed as inhibition of cell growth incubated for 48 hrs by MTT assay; type: functional, cell-based; details: MCF7, 48 h
[4] = system: MDA-MB-231; assay: Cytotoxicity against human MDA-MB-231 cells assessed as inhibition of cell growth incubated for 48 hrs by MTT assay; type: functional, cell-based; details: MDA-MB-231, 48 h
[5] = system: HT-29; assay: Cytotoxicity against human HT-29 cells assessed as inhibition of cell growth incubated for 48 hrs by MTT assay; type: functional, cell-based; details: HT-29, 48 h
[6] = system: DU-145; assay: Cytotoxicity against human DU-145 cells assessed as inhibition of cell growth incubated for 48 hrs by MTT assay; type: functional, cell-based; details: DU-145, 48 h
[7] = system: U-937; assay: Cytotoxicity against human U-937 cells assessed as inhibition of cell growth incubated for 48 hrs by MTT assay; type: functional, cell-based; details: U-937, 48 h
[8] = system: A549; assay: Cytotoxicity against human A549 cells assessed as inhibition of cell growth incubated for 48 hrs by MTT assay; type: functional, cell-based; details: A549, 48 h
[9] = system: PANC-1; assay: Cytotoxicity against human PANC-1 cells assessed as inhibition of cell growth incubated for 48 hrs by MTT assay; type: functional, cell-based; details: PANC-1, 48 h
[10] = Cytotoxicity against CHO-K1 cells assessed as inhibition of cell growth incubated for 48 hrs by MTT assay; type: toxicity, cell-based, Cricetulus griseus; details: Chinese hamster
[11] = Cytotoxicity against HEK293 cells assessed as inhibition of cell growth incubated for 48 hrs by MTT assay; type: toxicity, cell-based; details: human
[12] = Safety index, ratio of IC50 for CHO-K1 cells to IC50 for human MCF7 cells; type: toxicity; details: Chinese hamster (CHO-K1), CHO-K1 cells versus MCF7 cells, read-out: Ratio IC50
[13] = Safety index, ratio of IC50 for CHO-K1 cells to IC50 for human MDA-MB-231 cells; type: toxicity; details: Chinese hamster (CHO-K1), CHO-K1 cells versus MDA-MB-231 cells, read-out: Ratio IC50
[14] = Safety index, ratio of IC50 for CHO-K1 cells to IC50 for human HT-29 cells; type: toxicity; details: Chinese hamster (CHO-K1), CHO-K1 cells versus HT-29 cells, read-out: Ratio IC50
[15] = Safety index, ratio of IC50 for CHO-K1 cells to IC50 for human DU-145 cells; type: toxicity; details: Chinese hamster (CHO-K1), CHO-K1 cells versus DU-145 cells, read-out: Ratio IC50
[16] = Safety index, ratio of IC50 for CHO-K1 cells to IC50 for human U-937 cells; type: toxicity; details: Chinese hamster (CHO-K1), CHO-K1 cells versus U-937 cells, read-out: Ratio IC50
[17] = Safety index, ratio of IC50 for CHO-K1 cells to IC50 for human A549 cells; type: toxicity; details: Chinese hamster (CHO-K1), CHO-K1 cells versus A549 cells, read-out: Ratio IC50
[18] = Safety index, ratio of IC50 for CHO-K1 cells to IC50 for human PANC-1 cells; type: toxicity; details: Chinese hamster (CHO-K1), CHO-K1 cells versus PANC-1 cells, read-out: Ratio IC50
[19] = Safety index, ratio of IC50 for HEK293 cells to IC50 for human MCF7 cells; type: toxicity; details: HEK293 cells versus MCF7 cells, read-out: Ratio IC50
[20] = Safety index, ratio of IC50 for HEK293 cells to IC50 for human MDA-MB-231 cells; type: toxicity; details: HEK293 cells versus MDA-MB-231 cells, read-out: Ratio IC50
[21] = Safety index, ratio of IC50 for HEK293 cells to IC50 for human HT-29 cells; type: toxicity; details: HEK293 cells versus HT-29 cells, read-out: Ratio IC50
[22] = Safety index, ratio of IC50 for HEK293 cells to IC50 for human DU-145 cells; type: toxicity; details: HEK293 cells versus DU-145 cells, read-out: Ratio IC50
[23] = Safety index, ratio of IC50 for HEK293 cells to IC50 for human U-937 cells; type: toxicity; details: HEK293 cells versus U-937 cells, read-out: Ratio IC50
[24] = Safety index, ratio of IC50 for HEK293 cells to IC50 for human A549 cells; type: toxicity; details: HEK293 cells versus A549 cells, read-out: Ratio IC50
[25] = Safety index, ratio of IC50 for HEK293 cells to IC50 for human PANC-1 cells; type: toxicity; details: HEK293 cells versus PANC-1 cells, read-out: Ratio IC50
[26] = system: PANC-1; assay: Antitumor activity against human PANC-1 cells xenografted in BALB/c nude mouse assessed as reduction in tumor growth at 50 mg/kg, ip administered 3 times a week and measured on 30 days by caliper analysis; type: functional, organism-based; details: time 30.0 day
[27] = system: PANC-1; assay: Antitumor activity against human PANC-1 cells xenografted in BALB/c nude mouse assessed as animal survival rate at 50 mg/kg, ip administered 3 times a week and measured for 100 days; type: functional; details: PANC-1, 2400 h, time 100 day

Cc1ccsc1/C=C1\C(=O)Nc2nc(C)c(O)c(C)c21
inhibition at 30 µM [1]: 59%
inhibition at 30 µM [2]: 47.3%

COc1ccc(OC)c(/C=C2\C(=O)Nc3nc(C)c(O)c(C)c32)c1
inhibition at 30 µM [1]: 67.5%
inhibition at 30 µM [2]: 69.3%
IC50 [3]: 20.9 µM
IC50 [4]: 22.9 µM
IC50 [5]: 16.6 µM
IC50 [6]: 5.6 µM
IC50 [7]: 33 µM
IC50 [8]: 47.5 µM
IC50 [9]: 19.5 µM
IC50 at 48 h [10]: 47.5 µM
IC50 at 48 h [11]: 11 µM

Cc1nc2c(c(C)c1O)/C(=C/c1ccc(Cl)cc1)C(=O)N2
inhibition at 30 µM [1]: 51.7%
inhibition at 30 µM [2]: 45%

Cc1ccc(/C=C2\C(=O)Nc3nc(C)c(O)c(C)c32)cc1
inhibition at 30 µM [1]: 32.3%
inhibition at 30 µM [2]: 29.2%

Cc1nc2c(c(C)c1O)/C(=C/c1cccc3[nH]ccc13)C(=O)N2
inhibition at 30 µM [1]: 14.5%
inhibition at 30 µM [2]: 32.3%

Cc1nc2c(c(C)c1O)/C(=C/c1ccccc1O)C(=O)N2
inhibition at 30 µM [1]: 29.2%
inhibition at 30 µM [2]: 42.1%

CCCCC/C=C1\C(=O)Nc2nc(C)c(O)c(C)c21
inhibition at 30 µM [1]: 76.9%
inhibition at 30 µM [2]: 77.5%
IC50 [3]: 13.9 µM
IC50 [4]: 12.6 µM
IC50 [5]: 12.9 µM
IC50 [6]: 11 µM
IC50 [7]: 11.5 µM
IC50 [8]: 7.6 µM
IC50 [9]: 8.1 µM
IC50 at 48 h [10]: 20.9 µM
IC50 at 48 h [11]: 6.1 µM

Cc1nc2c(c(C)c1O)/C(=C/c1cnc[nH]1)C(=O)N2
inhibition at 30 µM [1]: 4.1%
inhibition at 30 µM [2]: 4.5%

Cc1nc2c(c(C)c1O)/C(=C/c1cccnc1)C(=O)N2
inhibition at 30 µM [1]: 78%
inhibition at 30 µM [2]: 72.8%
IC50 [3]: 17.4 µM
IC50 [4]: 9.6 µM
IC50 [5]: 20 µM
IC50 [6]: 1.2 µM
IC50 [7]: 14.5 µM
IC50 [8]: 13.8 µM
IC50 [9]: 51.3 µM
IC50 at 48 h [10]: 78.5 µM
IC50 at 48 h [11]: 33 µM
selectivity ratio [12]: 4.5
selectivity ratio [13]: 8.2
selectivity ratio [14]: 3.9
selectivity ratio [15]: 65.4
selectivity ratio [16]: 5.4
selectivity ratio [17]: 5.7
selectivity ratio [18]: 1.5
selectivity ratio [19]: 1.9
selectivity ratio [20]: 3.4
selectivity ratio [21]: 1.7
selectivity ratio [22]: 27.5
selectivity ratio [23]: 2.3
selectivity ratio [24]: 2.4
selectivity ratio [25]: 0.6

Nc1ccn([C@@H]2O[C@H](CO)[C@@H](O)C2(F)F)c(=O)n1 [GEMCITABINE]
Activity [26]: inactive
survival at 50 mg/kg [27]: 80%

COc1cccc(/C=C2\C(=O)Nc3nc(C)c(O)c(C)c32)c1
inhibition at 30 µM [1]: 29.6%
inhibition at 30 µM [2]: 46.5%

Cc1ccc(/C=C2\C(=O)Nc3nc(C)c(O)c(C)c32)s1
inhibition at 30 µM [1]: 53.4%
inhibition at 30 µM [2]: 30.2%

COc1ccc(Br)cc1/C=C1\C(=O)Nc2nc(C)c(O)c(C)c21
inhibition at 30 µM [1]: 74.7%
inhibition at 30 µM [2]: 71.8%
IC50 [3]: 11 µM
IC50 [4]: 10.5 µM
IC50 [5]: 25.1 µM
IC50 [6]: 4.6 µM
IC50 [7]: 12.6 µM
IC50 [8]: 10.1 µM
IC50 [9]: 6.4 µM
IC50 at 48 h [10]: 30.1 µM
IC50 at 48 h [11]: 19.5 µM

Cc1nc2c(c(C)c1O)/C(=C/c1ccccn1)C(=O)N2
inhibition at 30 µM [1]: 28.1%
inhibition at 30 µM [2]: 29.3%

COc1ccccc1/C=C1\C(=O)Nc2nc(C)c(O)c(C)c21
inhibition at 30 µM [1]: 30.7%
inhibition at 30 µM [2]: 10.2%

Cc1nc2c(c(C)c1O)/C(=C/C(c1ccccc1)c1ccccc1)C(=O)N2
inhibition at 30 µM [1]: 78.1%
inhibition at 30 µM [2]: 81.5%
IC50 [3]: 6.4 µM
IC50 [4]: 22.9 µM
IC50 [5]: 11.5 µM
IC50 [6]: 8.8 µM
IC50 [7]: 16.6 µM
IC50 [8]: 31.5 µM
IC50 [9]: 7.4 µM
IC50 at 48 h [10]: 30.1 µM
IC50 at 48 h [11]: 37.8 µM

Cc1nc2c(c(C)c1O)/C(=C/c1cccs1)C(=O)N2
inhibition at 30 µM [1]: 57.8%
inhibition at 30 µM [2]: 42.3%

Cc1nc2c(c(C)c1O)/C(=C/c1ncc[nH]1)C(=O)N2
inhibition at 30 µM [1]: 2.6%
inhibition at 30 µM [2]: 7.2%
